Data reported in ChEMBL document CHEMBL4602677, “Protective Effects of Compounds from Cimicifuga dahurica against Amyloid Beta Production in Vitro and Scopolamine-Induced Memory Impairment in Vivo” (J Nat Prod, 2020).
Calls of active or inactive are those of the source. The calls are words filed in the database; no cut-off is given here.

How the values were obtained:
[1] = tested on: CHO; assay: (§1) Inhibition of BACE1 in CHO cells stably expressing amyloid precursor protein after 24 hrs by Western blot analysis; type: cell-based; settings: Cricetulus griseus
[2] = as §1; type: cell-based, Cricetulus griseus
[3] = tested on: CHO; assay: Inhibition of BACE1 in CHO cells stably expressing amyloid precursor protein assessed as sAPPbeta level at 10 uM after 24 hrs by Western blot analysis relative to control; type: cell-based; settings: Cricetulus griseus
[4] = tested on: CHO; assay: Inhibition of gamma secretase in CHO cells stably expressing amyloid precursor protein assessed as reduction in Abeta42 levels at 10 uM by ELISA relative to control; type: cell-based; settings: Cricetulus griseus
[5] = tested on: CHO; assay: Cytotoxicity against CHO cells stably expressing amyloid precursor protein at 2.5 to 10 uM after 24 hrs by MTT assay; type: cell-based, Cricetulus griseus; settings: chinese hamster
[6] = tested on: CHO; assay: (§2) Inhibition of BACE1 in CHO cells stably expressing amyloid precursor protein assessed as reduction in sAPPbeta expression after 24 hrs by Western blot analysis; type: cell-based; settings: Cricetulus griseus
[7] = as §2; type: cell-based; settings: Cricetulus griseus
[8] = Inhibition of gamma secretase in CHO cells stably expressing amyloid precursor protein assessed as reduction in Abeta42 levels by ELISA; type: cell-based; settings: Cricetulus griseus
[9] = tested on: Mus musculus; assay: Reversal of scopolamine-induced amnesic effect in ICR mouse assessed as step-through latecy time at 1.25 mg/kg, po administered for 7 days followed by scopolamine challenge 30 mins prior to test by passive avoidance test (reference value: 10.80 +/- 4.1 secs); type: functional
[10] = tested on: Mus musculus; assay: Suppression of AChE in ICR mouse model of scopolamine-induced memory impairment assessed as reduction in protein activity in hippocampus at 5 mg/kg,po administered for 7 days by Ellman's method; type: functional, organism-based
[11] = tested on: Mus musculus; assay: Cognitive enhancing effect in ICR mouse model of scopolamine-Induced memory impairment assessed as escape latency time at 5 mg/kg, po administered for 7 days and measured after 60 mins at first day of training session by Morris water maze test (reference value: 84.5 +/- 4.6 secs); type: functional
[12] = tested on: Mus musculus; assay: Neuroprotective activity against scopolamine-induced memory impairment in ICR mouse assessed as increase in hippocampal phosphorylated CREB level at 5 mg/kg, po administered for 7 days by Western blot analysis; type: functional, organism-based
[13] = tested on: Mus musculus; assay: Cognitive enhancing effect in ICR mouse model of scopolamine-Induced memory impairment assessed as time spent in target quadrant at 5 mg/kg, po administered for 7 days and measured on day 6 by Morris water maze test (reference value: 14.48 +/- 1.6 secs); type: functional
[14] = tested on: Mus musculus; assay: Cognitive enhancing effect in po dosed ICR mouse model of scopolamine-Induced memory impairment assessed as increase in time spent in target quadrant administered for 7 days and measured on day 6 by Morris water maze test; type: functional, organism-based
[15] = tested on: Mus musculus; assay: Neuroprotective activity against scopolamine-induced memory impairment in ICR mouse assessed as increase in cortical phosphorylated AKT level at 5 mg/kg, po administered for 7 days by Western blot analysis; type: functional, organism-based
[16] = tested on: Mus musculus; assay: Neuroprotective activity against scopolamine-induced memory impairment in ICR mouse assessed as increase in hippocampal phosphorylated AKT level at 2.5 to 5 mg/kg, po administered for 7 days by Western blot analysis; type: functional, organism-based
[17] = tested on: Mus musculus; assay: Neuroprotective activity against scopolamine-induced memory impairment in ICR mouse assessed as increase in cortical phosphorylated CREB level at 1.25 to 2.5 mg/kg, po administered for 7 days by Western blot analysis; type: functional, organism-based
[18] = tested on: Mus musculus; assay: Cognitive enhancing effect in ICR mouse model of scopolamine-Induced memory impairment assessed as time spent in target quadrant at 2.5 mg/kg, po administered for 7 days and measured on day 6 by Morris water maze test (reference value: 14.48 +/- 1.6 secs); type: functional
[19] = tested on: Mus musculus; assay: Cognitive enhancing effect in ICR mouse model of scopolamine-Induced memory impairment assessed as escape latency time at 2.5 mg/kg, po administered for 7 days and measured after 60 mins at 5th day of training session by Morris water maze test (reference value: 77.5 +/- 6.6 secs); type: functional
[20] = tested on: Mus musculus; assay: Cognitive enhancing effect in ICR mouse model of scopolamine-Induced memory impairment assessed as escape latency time at 5 mg/kg, po administered for 7 days and measured after 60 mins at 5th day of training session by Morris water maze test (reference value: 77.5 +/- 6.6 secs); type: functional
[21] = tested on: Mus musculus; assay: Reversal of scopolamine-induced amnesic effect in ICR mouse assessed as step-through latecy time at 5 mg/kg, po administered for 7 days followed by scopolamine challenge 30 mins prior to test by passive avoidance test (reference value: 10.80 +/- 4.1 secs); type: functional
[22] = tested on: Mus musculus; assay: Reversal of scopolamine-induced amnesic effect in ICR mouse assessed as step-through latecy time at 2.5 mg/kg, po administered for 7 days followed by scopolamine challenge 30 mins prior to test by passive avoidance test (reference value: 10.80 +/- 4.1 secs); type: functional
[23] = tested on: Mus musculus; assay: Cognitive enhancing effect in ICR mouse model of scopolamine-Induced memory impairment assessed as time spent in target quadrant at 1.25 mg/kg, po administered for 7 days and measured on day 6 by Morris water maze test (reference value: 14.48 +/- 1.6 secs); type: functional
[24] = tested on: Mus musculus; assay: Neuroprotective activity against scopolamine-induced memory impairment in ICR mouse assessed as increase in hippocampal phosphorylated ERK level at 2.5 to 5 mg/kg, po administered for 7 days by Western blot analysis; type: functional, organism-based
[25] = tested on: Mus musculus; assay: Memory improvement effect in ICR mouse model of scopolamine-induced memory impairment assessed as discrimination index at 5 mg/kg, po administered for 7 days followed by scopolamine challenge 30 mins prior to test by object recognition test (reference value: 60.14 +/- 2.1%); type: functional
[26] = tested on: Mus musculus; assay: Cognitive enhancing effect in ICR mouse model of scopolamine-Induced memory impairment assessed as escape latency time at 2.5 mg/kg, po administered for 7 days and measured after 60 mins at first day of training session by Morris water maze test (reference value: 84.5 +/- 4.6 secs); type: functional
[27] = tested on: Mus musculus; assay: Cognitive enhancing effect in ICR mouse model of scopolamine-induced short-term memory impairment assessed as increase in spontaneous alteration at 5 mg/kg, po administered for 7 days followed by scopolamine challenge 30 mins prior to test by Y-maze test; type: functional
[28] = tested on: Mus musculus; assay: Neuroprotective activity against scopolamine-induced memory impairment in ICR mouse assessed as increase in cortical phosphorylated ERK level at 1.25 to 5 mg/kg, po administered for 7 days by Western blot analysis; type: functional, organism-based
[29] = tested on: Mus musculus; assay: Memory improvement effect in ICR mouse model of scopolamine-induced memory impairment assessed as discrimination index at 2.5 mg/kg, po administered for 7 days followed by scopolamine challenge 30 mins prior to test by object recognition test (reference value: 60.14 +/- 2.1%); type: functional

COC(C)(C)[C@H]1O[C@@]23O[C@@H]1C[C@@H](C)[C@@H]2[C@@]1(C)CC[C@@]24C[C@@]25CC[C@H](O[C@@H]2OC[C@@H](O)[C@H](O)[C@H]2O)C(C)(C)[C@@H]5CC=C4[C@]1(C)[C@H]3O
inhibition [1]: Dose-dependent effect | IC50 [2]: 8.1 µM | inhibition [3]: 20% | inhibition [4]: 48.9% | Activity [5]: Non-Toxic | inhibition [6]: Dose-dependent effect | IC50 [7]: 7.1 µM | IC50 [8]: 10.1 µM

C[C@@H]1C[C@H]([C@@H](O)C(C)(C)O)O[C@H]2C(=O)[C@@]3(C)C4=C(CC[C@]3(C)[C@@H]12)C[C@]12CC[C@H](O1)C(C)(C)[C@@H]2CC4
inhibition [1]: Dose-dependent effect | IC50 [2]: 6.2 µM | inhibition [3]: 20% | inhibition [4]: 80.6% | Activity [5]: Non-Toxic | inhibition [6]: Dose-dependent effect | IC50 [7]: 4.3 µM | IC50 [8]: 6.2 µM

CC(=O)O[C@H]([C@H]1C[C@@H](C)[C@H]2[C@@](O)(O1)[C@H](O)[C@@]1(C)C3=CC[C@H]4C(C)(C)[C@@H](O[C@@H]5OC[C@@H](O)[C@H](O)[C@H]5O)CC[C@@]45C[C@@]35CC[C@]21C)C(C)(C)O
Time [9]: 14.5 s | inhibition [1]: Dose-dependent effect | IC50 [2]: 7.1 µM | inhibition [3]: 20% | Activity [10]: Active | Time [11]: 76 s | inhibition [4]: 61.7% | Activity [12]: Active | Time [13]: 25.86 s | Activity [14]: Dose-dependent effect | Activity [15]: Active | Activity [16]: Active | Activity [17]: Active | Time [18]: 20.4 s | Time [19]: 49.4 s | Time [20]: 48.1 s | Time [21]: 46.9 s | Time [22]: 28.8 s | Activity [5]: Non-Toxic | Time [23]: 18.43 s | Activity [24]: Active | inhibition [6]: Dose-dependent effect | IC50 [7]: 6.1 µM | IC50 [8]: 8.1 µM | Activity [25]: 68% | Time [26]: 80.7 s | Activity [27]: 11.6% | Activity [28]: Active | Activity [29]: 64.29%

CC(=O)O[C@@H]1[C@H](O)[C@@H](O)[C@H](O[C@H]2CC[C@]34C[C@]35CC[C@]3(C)[C@H]6[C@H](C)C[C@H]([C@@H](OC(C)=O)C(C)(C)O)O[C@@]6(O)[C@H](O)[C@@]3(C)C5=CC[C@H]4C2(C)C)O[C@@H]1CO
inhibition [1]: Dose-dependent effect | IC50 [2]: 7.8 µM | inhibition [4]: 34.7% | Activity [5]: Non-Toxic | inhibition [6]: Dose-dependent effect | IC50 [7]: 8.3 µM | IC50 [8]: 14.4 µM
